According to PubChem BioAssay (NCI):
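Five concentrations, 48 hours, 96-well plates. Here, GI50 denotes the concentration required for 50% inhibition of growth. TGI denotes the concentration required for complete inhibition of growth.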

How the values were obtained:
Assay in all cases: NCI anticancer screen, dose series, 48 h
COLO 205 colon = tested on: COLO 205 colon
MOLT-4 leukemia = tested on: MOLT-4 leukemia
SK-MEL-28 melanoma = tested on: SK-MEL-28 melanoma
SK-OV-3 ovarian = tested on: SK-OV-3 ovarian
KM12 colon = tested on: KM12 colon
SF-295 CNS = tested on: SF-295 CNS
EKVX NSCLC = tested on: EKVX NSCLC
UACC-62 melanoma = tested on: UACC-62 melanoma
UO-31 renal = tested on: UO-31 renal
CAKI-1 renal = tested on: CAKI-1 renal

Row | SMILES | GI50 (COLO 205 colon) [µM] | TGI (COLO 205 colon) [µM] | GI50 (MOLT-4 leukemia) [µM] | TGI (MOLT-4 leukemia) [µM] | GI50 (SK-MEL-28 melanoma) [µM] | TGI (SK-MEL-28 melanoma) [µM] | GI50 (SK-OV-3 ovarian) [µM] | TGI (SK-OV-3 ovarian) [µM] | GI50 (KM12 colon) [µM] | TGI (KM12 colon) [µM] | GI50 (SF-295 CNS) [µM] | TGI (SF-295 CNS) [µM] | GI50 (EKVX NSCLC) [µM] | TGI (EKVX NSCLC) [µM] | GI50 (UACC-62 melanoma) [µM] | TGI (UACC-62 melanoma) [µM] | GI50 (UO-31 renal) [µM] | TGI (UO-31 renal) [µM] | GI50 (CAKI-1 renal) [µM] | TGI (CAKI-1 renal) [µM]
1 | CN1CCN(c2ccc(-c3ccc4ncc(C#N)c(Nc5ccc(F)c(Cl)c5)c4c3)cc2)CC1 | 1.92 | 4.99 | 1.97 | 5.53 | 1.79 | 3.66 | 2.9 | 15.1 | 4.47 | 18.4 | 1.82 | 3.61 | 0.838 | 41.2 | 1.87 | 3.75 | 0.895 | 6.13 | 1.01 | 3.01
2 | COc1cc(-c2n/c(=C\c3c(O)[nH]c4ccc(Cl)cc34)cc3c2=Nc2ccccc2-3)cc(OC)c1OC | 1.35 | 3.81 | 0.679 | 3.64 | 2.04 | 4.41 | 2.16 | 4.79 | 1.72 | 5.61 | 3.31 | 10.2 | 3.59 | 18.7 | 1.8 | 3.42 | 1.29 | 2.72 | 1.97 | 6.72
3 | Cc1nc(Cl)c(Cl)c(Cl)n1 |  | 1.42 |  | < 0.025 |  | 1.2 |  | 7.53 |  | 1 |  | 3.58 |  | 1.17 |  | 1.46 |  | 0.208 |  | 
4 | O=C(N/C(=C\c1ccccc1[N+](=O)[O-])c1nc2ccccc2[nH]1)c1ccccc1 |  | > 100 |  | > 100 |  | > 100 |  | > 100 |  | > 100 |  | > 100 |  |  |  | > 100 |  | > 100 |  | > 100
5 | CC(C)(N)CO[C@H]1C[C@H]2CC[C@@]1(C)C2(C)C |  | 35.2 |  | 80.9 |  | 27.4 |  | > 100 |  | 34 |  | 39.3 |  | > 100 |  | 34.3 |  | 37.7 |  | 70.6
6 | O=c1[nH][nH]c(=O)[nH]1 |  | > 100 |  | > 100 |  | > 100 |  | > 100 |  | > 100 |  | > 100 |  | > 100 |  | > 100 |  | > 100 |  | > 100
7 | CCn1nc(C)c2c1C(=O)NC(C)C(=O)N2 (stereo unspecified) |  | > 100 |  |  |  | > 100 |  | > 100 |  |  |  | > 100 |  | > 100 |  | > 100 |  | > 100 |  | > 100
